Test results taken from US8551526B2, “Preparation of drug particles using evaporation precipitation into aqueous solutions” (Board of Regents, The University of Texas System, priority 2000, dated 2013).
Values joined by “and” are separate entries in the source; they are usually repeats but may differ in a detail not shown here. Equal values may be shown once.

Columns and labels:
Type in all cases: physicochemical
[1] = Particle size distribution by static light scattering (Malvern Mastersizer-S) and redispersibility; details: after centrifugation and vacuum drying
Source text: The organic danazol solution was fed by an HPLC pump through a 3 m long 1/16 in. o.d.×0.030 in. i.d. stainless steel coiled tube contained within a 1½″ OD×24″ long plastic water jacket (Alltech). Water was circulated through the jacket with a JULABO MP temperature controller. The organic solution was atomized through an unheated insulated adjustable restrictor (5 mm dia.×136 mm long, ISCO, USA) into hot water. Atomization was achieved by adjusting the nozzle valve manually to maintain a pressure drop to about 3500 psi. The aqueous stabilizing solution was contained in a 250 ml plastic submerged in a temperature-controlled water bath. The nozzle was submerged approximately 10 cm under the surface of the aqueous solution. […] After spraying for a required time to produce the desired drug/excipient ratio, the suspension was recovered and analyzed within 30 mins to determine the particle size by light scattering with a Malvern Mastersizer-S (Malvern Instruments Ltd., U. K.).
Two percent (2%) w/v danazol solution in dichloromethane was sprayed at a flow rate of 1 ml/min into 100 ml aqueous solution containing 1% w/v excipient or a excipient mixture at 1:1 w/w ratio, if two surfactants were used, to stabilize the drug particles. […] The surface area of the dry powders was measured with a high-speed surface area BET analyzer (NOVA 2000, Quantachrome Instruments, USA). […]

[2] = X-ray diffraction of danazol dry powders
Experimental: (§1) Two percent (2%) w/v danazol solution in dichloromethane was sprayed at a flow rate of 1 ml/min into 100 ml aqueous solution containing 1% w/v excipient or a excipient mixture at 1:1 w/w ratio, if two surfactants were used, to stabilize the drug particles. The temperatures of both heating jacket and water bath were 80° C. and the pressure drop was 3500-4000 psi. After 25 minutes spray, a suspension with drug to excipient ratio of 0.5 was recovered and the particle size of the danazol particles was measured with Malvern Mastersizer-S. The suspensions were centrifuged (BECKMAN, Model TJ-6, USA) at 3000 rpm for 30 mins. The supernatants were poured out and the precipitates were placed into a vacuum oven and dried at 40° C., and −30 in Hg for 3-4 hrs. The crystallinity of the dry powders was examined by x-ray diffraction (PW1720, PHILIPS). The surface area of the dry powders was measured with a high-speed surface area BET analyzer (NOVA 2000, Quantachrome Instruments, USA).
X-ray diffraction was used to analyze the crystallinity of the dry powders. […] The a-peak heights of danazol in different excipient systems at 2θ=15° are listed in Table N. The reduction in crystallinity was less than 20% after correction for the presence of 10% w/w excipient. It was assumed that the danazol peak height was linear in concentration for a fixed weight. […]

[3] = BET surface area of danazol dry powders
Experimental: as §1

[4] = Contact angle of water on compressed dry powder tablet; details: distilled water drop on compressed tablet
Experimental: […] was filled into a 0.7 cm diameter flat faced die and compressed with a Carver Laboratory Press (Model M, Fred S. Carver Inc, WIS, USA) at 1500 kgf into a tablet. A drop of […] distilled water was placed on the surface of the tablet and contact angle was measured from the tangential angle of the water drop with help of a camera (Panasonic WV-1410, Philippines).

In the case of `C#C[C@]1(O)CC[C@H]2[C@@H]3CCC4=Cc5oncc5C[C@]4(C)[C@H]3CC[C@@]21C` [Bulk danazol, danazol], the “D (v, 0.5) redispersed dry powders” value ([1]; cell marked (30s)) was 21.07 (30s) μm, the “D (v, 0.5) redispersed dry powders w/o ultrasonic” value ([1]; redispersed in distilled water) was 29.63 μm and the “Peak height of danazol x-ray diffraction at 2θ = 15°” value [2] was 3182 counts. For the same compound, the “Surface Area of the dry powder” value [3] was 0.52 m^2/g and the “Contact angle of dry powder after centrifugation and drying” value [4] was 61.5 ° and 61.0 °.
